Each structure is given as a SMILES string. Bounds are passed on as bounds.

In general, EC50 refers to the midpoint of the concentration-response curve.

A short description of this test: Agonist activity at vitamin D3 receptor in human HL-60 cells assessed as induction of cell differentiation after 96 hrs by NBT dye-based microscopic analysis.
In the case of `CCN(CC)CCNC(=O)c1ccc(C(CC)(CC)c2ccc(OCC(O)C(C)(C)C)c(C)c2)n1CC` (stereo unspecified), the EC50 was 0.11 µM. `CCn1c(C(=O)N[C@@H](C)CO)ccc1C(CC)(CC)c1ccc(OCC(O)C(C)(C)C)c(C)c1` (stereo partly specified): the EC50 amounted to 0.0085 µM. Turning to `C=CCN(C)C(=O)c1ccc(C(CC)(CC)c2ccc(OCC(=O)C(C)(C)C)c(C)c2)n1CC`, the EC50 is 21.6 µM. `CCN(CC)CCNC(=O)c1ccc(C(CC)(CC)c2ccc(OCC(=O)C(C)(C)C)c(C)c2)n1CC`: the half-maximal effective concentration (EC50) was 0.091 µM. For `CCOC(=O)c1ccc(OC(=O)c2ccc(C(CC)(CC)c3ccc(OCC(=O)C(C)(C)C)c(C)c3)n2CC)cc1`, the EC50 came to 45.6 µM. Regarding `CCn1c(C(=O)Nc2ccc(OC(F)(F)F)cc2)ccc1C(CC)(CC)c1ccc(OCC(O)C(C)(C)C)c(C)c1` (stereo unspecified), the EC50 is more than 50 µM.

Turning to `CCn1c(C(=O)Nc2cccc(C(F)(F)F)c2)ccc1C(CC)(CC)c1ccc(OCC(O)C(C)(C)C)c(C)c1` (stereo unspecified), the EC50 was more than 50 µM. For the compound `CCOc1ccc(NC(=O)c2ccc(C(CC)(CC)c3ccc(OCC(O)C(C)(C)C)c(C)c3)n2CC)cc1` (stereo unspecified), the EC50 was 0.63 µM. For `CCn1c(C(=O)Oc2ccc(CCO)cc2)ccc1C(CC)(CC)c1ccc(OCC(O)C(C)(C)C)c(C)c1` (stereo unspecified) the value was 5.1 µM; for `CCn1c(C(=O)OCc2ccc(F)cc2)ccc1C(CC)(CC)c1ccc(OCC(O)C(C)(C)C)c(C)c1` (stereo unspecified), more than 50 µM.

Take `CCn1c(C(=O)NCC(OC)OC)ccc1C(CC)(CC)c1ccc(OCC(O)C(C)(C)C)c(C)c1` (stereo unspecified): the concentration giving a half-maximal response (EC50) worked out at 0.15 µM. For the compound `CCn1c(C(=O)NCCCN2CCOCC2)ccc1C(CC)(CC)c1ccc(OCC(O)C(C)(C)C)c(C)c1` (stereo unspecified), the EC50 was determined as 0.018 µM.

With `CCn1c(C(=O)NCCN)ccc1C(CC)(CC)c1ccc(OCC(O)C(C)(C)C)c(C)c1` (stereo unspecified), the EC50 is 0.01 µM. On to `CCn1c(C(=O)N(C)c2ccccc2)ccc1C(CC)(CC)c1ccc(OCC(O)C(C)(C)C)c(C)c1` (stereo unspecified), for which the EC50 came out at 6.4 µM. With `C#CC(C)OC(=O)c1ccc(C(CC)(CC)c2ccc(OCC(O)C(C)(C)C)c(C)c2)n1CC` (stereo unspecified), the EC50 came out at 0.2 µM. For the compound `C#CCCOC(=O)c1ccc(C(CC)(CC)c2ccc(OCC(O)C(C)(C)C)c(C)c2)n1CC` (stereo unspecified), the 50% effective concentration (EC50) came to 1.03 µM. Take `CC[C@@H](C)[C@H](NC(=O)c1ccc(C(CC)(CC)c2ccc(OCC(=O)C(C)(C)C)c(C)c2)n1CC)C(=O)O`: the EC50 came to 0.01 µM.

As for `CCn1c(C(=O)N(C)CC(=O)O)ccc1C(CC)(CC)c1ccc(OCC(O)C(C)(C)C)c(C)c1` (stereo unspecified), the EC50 was determined as 0.74 µM. Regarding `CCn1c(C(=O)Nc2ccc(OC(F)(F)F)cc2)ccc1C(CC)(CC)c1ccc(OCC(=O)C(C)(C)C)c(C)c1`, the EC50 is more than 50 µM. With `CCN(CC)CCCNC(=O)c1ccc(C(CC)(CC)c2ccc(OCC(=O)C(C)(C)C)c(C)c2)n1CC`, the EC50 came out at 0.022 µM.

For `CCn1c(C(=O)NCCCN(C)C)ccc1C(CC)(CC)c1ccc(OCC(O)C(C)(C)C)c(C)c1` (stereo unspecified), the EC50 turned out to be 0.037 µM.

Consider `CCN(CC)CCCNC(=O)c1ccc(C(CC)(CC)c2ccc(OCC(O)C(C)(C)C)c(C)c2)n1CC` (stereo unspecified), for which the EC50 was found to be 0.066 µM. For `CC[C@@H](C)[C@H](NC(=O)c1ccc(C(CC)(CC)c2ccc(OCC(O)C(C)(C)C)c(C)c2)n1CC)C(=O)O` (stereo partly specified), the EC50 was found to be 0.0023 µM.

As to `CCOC(=O)CN(C)C(=O)c1ccc(C(CC)(CC)c2ccc(OCC(=O)C(C)(C)C)c(C)c2)n1CC`, the EC50 was more than 50 µM. As for `CCn1c(C(=O)NCC(OC)OC)ccc1C(CC)(CC)c1ccc(OCC(=O)C(C)(C)C)c(C)c1`, the figure is 0.13 µM; as for `CCn1c(C(=O)NCCCN2CCOCC2)ccc1C(CC)(CC)c1ccc(OCC(=O)C(C)(C)C)c(C)c1`, 0.24 µM; as for `CCn1c(C(=O)N(C)CCC#N)ccc1C(CC)(CC)c1ccc(OCC(=O)C(C)(C)C)c(C)c1`, 9.8 µM.

For `CCn1c(C(=O)N(C)c2ccccc2)ccc1C(CC)(CC)c1ccc(OCC(=O)C(C)(C)C)c(C)c1`, the concentration for a half-maximal effect (EC50) was determined as 18.5 µM. For `CCOC(=O)CN(C)C(=O)c1ccc(C(CC)(CC)c2ccc(OCC(O)C(C)(C)C)c(C)c2)n1CC` (stereo unspecified) the value was 0.21 µM; for `CCn1c(C(=O)OCc2ccccn2)ccc1C(CC)(CC)c1ccc(OCC(=O)C(C)(C)C)c(C)c1`, more than 50 µM; for `C#CCNC(=O)c1ccc(C(CC)(CC)c2ccc(OCC(O)C(C)(C)C)c(C)c2)n1CC` (stereo unspecified), 0.24 µM.

Take `CCn1c(C(=O)NCCN(C)C)ccc1C(CC)(CC)c1ccc(OCC(=O)C(C)(C)C)c(C)c1`: the EC50 stood at 0.077 µM. As for `CCn1c(C(=O)OC(C)CCO)ccc1C(CC)(CC)c1ccc(OCC(=O)C(C)(C)C)c(C)c1` (stereo unspecified), the figure is 0.38 µM. As to `CCn1c(C(=O)NCCBr)ccc1C(CC)(CC)c1ccc(OCC(=O)C(C)(C)C)c(C)c1`, the EC50 worked out at 1.9 µM. For `CCn1c(C(=O)NCCCN(C)C)ccc1C(CC)(CC)c1ccc(OCC(=O)C(C)(C)C)c(C)c1` the value was 0.096 µM. As for `CC[C@@H](C)[C@H](NC(=O)c1ccc(C(CC)(CC)c2ccc(OCC(O)C(C)(C)C)c(C)c2)n1CC)C(=O)OC` (stereo partly specified), the EC50 was 0.026 µM. Regarding `CCn1c(C(=O)OCc2ccc(F)cc2)ccc1C(CC)(CC)c1ccc(OCC(=O)C(C)(C)C)c(C)c1`, the EC50 was found to be 9.5 µM.

Consider `C=CCN(C)C(=O)c1ccc(C(CC)(CC)c2ccc(OCC(O)C(C)(C)C)c(C)c2)n1CC` (stereo unspecified), for which the EC50 amounted to 3.95 µM. With `CCn1c(C(=O)NCCN)ccc1C(CC)(CC)c1ccc(OCC(=O)C(C)(C)C)c(C)c1`, the EC50 came to 0.12 µM.

Regarding `CCn1c(C(=O)N(CCC#N)CCC#N)ccc1C(CC)(CC)c1ccc(OCC(O)C(C)(C)C)c(C)c1` (stereo unspecified), the EC50 was found to be 0.097 µM.

As to `CC[C@@H](C)[C@H](NC(=O)c1ccc(C(CC)(CC)c2ccc(OCC(=O)C(C)(C)C)c(C)c2)n1CC)C(=O)OC`, the EC50 worked out at 0.59 µM. For the compound `C#CCNC(=O)c1ccc(C(CC)(CC)c2ccc(OCC(=O)C(C)(C)C)c(C)c2)n1CC`, the EC50 was 2.2 µM. As for `CCn1c(C(=O)N(CCC#N)CCC#N)ccc1C(CC)(CC)c1ccc(OCC(=O)C(C)(C)C)c(C)c1`, the figure is 0.87 µM; as for `CCn1c(C(=O)NCCN(C)C)ccc1C(CC)(CC)c1ccc(OCC(O)C(C)(C)C)c(C)c1` (stereo unspecified), 0.014 µM; as for `CCn1c(C(=O)NCCBr)ccc1C(CC)(CC)c1ccc(OCC(O)C(C)(C)C)c(C)c1` (stereo unspecified), 0.13 µM. As to `CCn1c(C(=O)N(C)CC(=O)O)ccc1C(CC)(CC)c1ccc(OCC(=O)C(C)(C)C)c(C)c1`, the 50% effective concentration (EC50) was found to be 1.39 µM. Regarding `CCn1c(C(=O)Nc2cccc(C(F)(F)F)c2)ccc1C(CC)(CC)c1ccc(OCC(=O)C(C)(C)C)c(C)c1`, the EC50 is more than 50 µM.

For the compound `CCn1c(C(=O)Oc2ccc(CC(=O)OC)cc2)ccc1C(CC)(CC)c1ccc(OCC(=O)C(C)(C)C)c(C)c1`, the EC50 was found to be 2.32 µM. In the case of `CCOC(=O)c1ccc(OC(=O)c2ccc(C(CC)(CC)c3ccc(OCC(O)C(C)(C)C)c(C)c3)n2CC)cc1` (stereo unspecified), the EC50 was more than 50 µM. With `C#CC(C)OC(=O)c1ccc(C(CC)(CC)c2ccc(OCC(=O)C(C)(C)C)c(C)c2)n1CC` (stereo unspecified), the half-maximal effective concentration (EC50) turned out to be 0.21 µM.

On to `C#CCCOC(=O)c1ccc(C(CC)(CC)c2ccc(OCC(=O)C(C)(C)C)c(C)c2)n1CC`, for which the EC50 is 28.8 µM. For `CCn1c(C(=O)OCc2ccccn2)ccc1C(CC)(CC)c1ccc(OCC(O)C(C)(C)C)c(C)c1` (stereo unspecified), the concentration giving a half-maximal response (EC50) was more than 50 µM.

Turning to `CCOC(=O)CC(C)OC(=O)c1ccc(C(CC)(CC)c2ccc(OCC(=O)C(C)(C)C)c(C)c2)n1CC` (stereo unspecified), the EC50 was more than 50 µM.

In the case of `CCOc1ccc(NC(=O)c2ccc(C(CC)(CC)c3ccc(OCC(=O)C(C)(C)C)c(C)c3)n2CC)cc1`, the EC50 was more than 50 µM. In the case of `CCn1c(C(=O)N(C)CCC#N)ccc1C(CC)(CC)c1ccc(OCC(O)C(C)(C)C)c(C)c1` (stereo unspecified), the EC50 was found to be 1.96 µM. On to `CCC(CC)(c1ccc(OCC(=O)C(C)(C)C)c(C)c1)c1ccc(OCC(=O)C(C)(C)C)c(C)c1` [LG190155], for which the EC50 is 0.59 µM.

The record behind these values is BindingDB's records for doi:10.1016/j.ejmech.2015.10.042 (China Pharmaceutical University, 2016).
